Data on 18 compounds can be found in patent US5874436A, “Triphenylalkyl antimicrobial agents” (priority 1997, dated 1999).

Molecules are shown by their SMILES.

For this assay, the target named is T1, Kinase A and Spo0F (Bacillus subtilis, UniProt P16497).
T1 construct: made in house; host or cells: E. coli (recombinant, overexpressing)
T1 sequence (P16497 1-606): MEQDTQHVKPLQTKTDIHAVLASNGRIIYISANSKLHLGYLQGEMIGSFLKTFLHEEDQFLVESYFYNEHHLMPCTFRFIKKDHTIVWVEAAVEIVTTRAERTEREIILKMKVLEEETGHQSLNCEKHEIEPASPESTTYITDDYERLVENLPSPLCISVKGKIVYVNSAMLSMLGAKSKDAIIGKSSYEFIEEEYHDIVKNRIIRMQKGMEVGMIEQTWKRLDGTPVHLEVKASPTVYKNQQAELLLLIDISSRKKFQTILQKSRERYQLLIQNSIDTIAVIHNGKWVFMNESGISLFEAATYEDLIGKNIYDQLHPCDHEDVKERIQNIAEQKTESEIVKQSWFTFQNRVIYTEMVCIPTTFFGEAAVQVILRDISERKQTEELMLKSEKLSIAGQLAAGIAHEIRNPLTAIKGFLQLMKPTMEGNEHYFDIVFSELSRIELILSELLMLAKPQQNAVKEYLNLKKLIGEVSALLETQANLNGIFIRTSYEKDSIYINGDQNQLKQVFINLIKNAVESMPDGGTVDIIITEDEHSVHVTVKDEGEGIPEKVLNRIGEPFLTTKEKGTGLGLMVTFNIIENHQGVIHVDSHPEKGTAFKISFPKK
In words: Autophosphorylation of Kinase A and transphosphorylation of Spo0F assay (HPK in vitro assay). In kind it is biochemical. The following applies: inhibitor concentrations from 1 to 500 μM, [32P]ATP, phosphoimager. On the procedure:
1. Autophosphorylation of Kinase A and Transphosphorylation of Spo0F Assay
To study the effect of the compounds of the present invention on the signal transduction process in bacteria, the inhibiting effect of the compounds on the sporulation operon proteins Kinase A and Spo0F was examined. Specifically, the inhibition of autophosphorylation of Kinase A and the transphosphorylation of Spo0F was determined in the following assays. The Spo0F response regulator is the primary substrate for phosphorylation by the protein kinase, Kin A, involved in the sporulation process in bacteria. See D. Burbulys, K. A. Trach, J. A. Hoch, Cell, 64, 545-552 (1991). Spo0F and KinA were prepared from recombinant E. coli overexpressing the proteins (J. Cavanagh et al, Amino Acids, 6, 131-140 (1994) and references therein).
The following stock reagents were either prepared and used promptly or stored at the indicated temperature:
8 X Salts : 2M KCl (5 mL), 1M MgCl2 (800 mL), 1M CaCl2 (100 mL), 10 mg/mL phenylmethylsulfonyl fluoride (200 mL), 1 M dithioreitol (50 mL), 0.25M Na2 EDTA (32 mL) and H2 O mL (-20° C.)
5×Loading Dye: 0.5M TRIS-HCl-pH 6.8 (7.5 mL), 10% SDS (2 mL) 0.1% bromophenol blue (0.5 mL), 100% glycerol (3 mL) and 12.5 M 2-mercaptoethanol (0.3 mL)
1-1.3 mg/mL KinA:15 mM TRIS-HCl, pH 8.0, 6 mM KCl; 4 mM 2-mercaptoethanol; 40% glycerol (-20° C.)
1 mg/mL Spo0F: 17.5 mM TRIS-HCl, pH 8.0; 0.7 mM KCl; 0.7 mM MgCl2; 0.7 mM CaCl2; 5mM 2-mercaptoethanol; 30% Glycerol (-20° C.)
5% Stacking Gel: 40% 29:1 acrylamide:bis acrylamide (1.25 mL), 0.5M TRIS-HCl, pH 6.8 (2.5 mL), 10% SDS (0.1 mL), D-H2 O (6.15 mL) 10% ammonium persulfate (100 mL) and TEMED (25 mL) SDS Running Buffer: TRIS-BASE (3.02 g), glycine (14.4 g) SDS (1 g), D-H2 O (to 1L)
The reaction mixture was prepared from 8×Salts (87 μL), 1M TRIS, pH 8 (118 μL), 50% glycerol (63 μL), Spo0F (14.1 μL) and KinA (7.0 μL). Microcentrifuge tubes were charged with the reaction mixture (18.5 μL) and a 1.0 mM solution of the test compound in 5% DMSO (18.5 μL), and incubated for 15 min on ice. 100 mM ATP solution (3.0 μl, containing 625 μCi [^32 P]ATP) was added, and the mixture left for 10 minutes at room temperature. The reaction was quenched with 5×loading dye (10 μL per tube) and the samples were loaded on a prepared 5% Stacking Gel, or stored on dry ice until ready for use. The prepared wells were filled with SDS Running Buffer, samples were loaded into the wells, and 80 volts were applied to the gel until the dye front reached the bottom of the stacking gel. The voltage was then increased to 250 volts until electrophoresis was complete. Radioactive bands in the gel corresponding to phosphorylated KinA and Spo0F were imaged and quantitated with a phosphoimager.
If either enzyme was inhibited (as evidenced by the absence of labelled protein in the developed gel), an IC50 was calculated by running the assay with a range of inhibitor concentrations from 1 to 500 μM. After electrophoresis of the reaction mixtures, percent inhibition was determined by measuring the concentration of radioactive phosphorus with a phosphoimager and calculating the values using a software program (BioRad Molecular Analyst).
In general, IC50 refers to the concentration that gives 50% inhibition. A high value points to weaker potency. In turn, `O=C(O)c1ccc(OCCC(c2ccccc2)(c2ccccc2)c2ccccc2)cc1` [Example 21, 4-(3,3,3-Triphenylpropoxy)benzoic acid] showed a concentration for half-maximal inhibition (IC50) of 290 µM.
The same measure for `O=C1NC(=O)C(c2ccc(OCCC(c3ccccc3)(c3ccccc3)c3ccccc3)cc2)S1` (stereo not drawn) [Example 41, 5-[4-(3,3,3-Triphenylpropoxy)phenyl]thiazolidine-2,4-dione]: 18 µM.
Next, `O=C(O)COc1ccccc1OCCC(c1ccccc1)(c1ccccc1)c1ccccc1` [Example 45, 2-(3,3,3-triphenylpropoxy)phenoxyacetic acid]: 20 µM.
Next, `NCc1ccc(OCCC(c2ccccc2)(c2ccccc2)c2ccccc2)cc1` [Example 4, 4-(3,3,3-triphenylpropoxy)benzylamine]: 19 µM; `C1=C(c2ccc(OCCC(c3ccccc3)(c3ccccc3)c3ccccc3)cc2)CCNC1` [Example 2, 4-[4-(3,3,3-Triphenylpropyloxy)phenyl]-1,2,3,6-tetrahydropiperidine]: 170 µM.
`NCCCc1ccc(SCCC(c2ccccc2)(c2ccccc2)c2ccccc2)cc1` [Example 40, 3-[4-(3,3,3-Triphenylpropylthio)phenyl]propylamine] returned an IC50 of 13 µM.
Next, `c1ccc(C(CCOc2ccc(-c3nnn[nH]3)cc2)(c2ccccc2)c2ccccc2)cc1` [Example 39, 5-[4-(3,3,3-Triphenylpropoxy)phenyl]-1H-tetrazole]: 110 µM; `O=C(CC(c1ccccc1)(c1ccccc1)c1ccccc1)Nc1ccc(N2CCNCC2)cc1` [Example 1, 4-[4-(3,3,3-Triphenylpropanoylamino)phenyl]piperazine]: 200 µM.
Next, `NCCc1cccc(OCCC(c2ccccc2)(c2ccccc2)c2ccccc2)c1` [Example 7, 2-(3-(3,3,3-triphenylpropoxy)phenyl)ethylamine]: 80 µM; `O=C(O)C(O)c1ccc(OCCC(c2ccccc2)(c2ccccc2)c2ccccc2)cc1` (stereo not drawn) [Example 37, 2-[4-(3,3,3-Triphenylpropoxy)phenyl]glycolic acid]: 73 µM.
`O=C(O)c1c(O)cccc1OCCC(c1ccccc1)(c1ccccc1)c1ccccc1` [Example 42, 2-Hydroxy-6-(3,3,3-triphenylpropoxy)benzoic acid] displayed an IC50 of 85 µM. This IC50 and that of the compound before are within 1.5-fold of each other.
Next, `O=C(O)COc1cccc(OCCC(c2ccccc2)(c2ccccc2)c2ccccc2)c1` [Example 44, 3-(3,3,3-triphenylpropoxy)phenoxyacetic acid]: 71 µM; `N=C(N)NCCc1ccc(OCCCC(c2ccccc2)(c2ccccc2)c2ccccc2)cc1` [Example 11]: 21 µM; `NCCc1ccc(OCCC(c2ccc(Cl)cc2)(c2ccc(Cl)cc2)c2ccc(Cl)cc2)cc1` [Example 6]: 150 µM.
Turning to `O=C(O)CCc1ccccc1OCCC(c1ccccc1)(c1ccccc1)c1ccccc1` [Example 38, 3-[2-(3,3,3-Triphenylpropoxy)phenyl]propionic acid], the IC50 stood at 27 µM. Against the preceding compound, the IC50 is about 5.6-fold lower.
Take `c1ccc(C(CCOc2ccc(CCC3=NCCO3)cc2)(c2ccccc2)c2ccccc2)cc1` [Example 19, 4.5-Dihydro-2-{2-[4-(3,3,3-triphenylpropoxy)-phenyl]ethyl} oxazole]: the IC50 stood at 260 µM. This IC50 is about 9.6-fold higher than that of the compound before.
Next, `O=C(O)CCCOc1cccc(OCCC(c2ccccc2)(c2ccccc2)c2ccccc2)c1` [Example 46, 4-[3-(3,3,3-triphenylpropoxy)phenoxy]butyric acid]: 16 µM.
`O=C(O)/C=C/c1cccc(OCCC(c2ccccc2)(c2ccccc2)c2ccccc2)c1` [Example 43, trans 3-(3,3,3-Triphenylpropoxy)cinnamic acid] registered a half-inhibitory concentration (IC50) of 40 µM.
